Assay results as given in US4689345A, “Oxygenated alkyl substituted bicyclo alkanes” (CBD Corporation, priority 1986, dated 1987).
“Also recorded” adds a separate entry of the source.

How the values were obtained:
androgen receptor [1] = assay: Androgen receptor inhibition, Actinomyces; assay type: binding
estrogen receptor [2] = assay: Estrogen receptor inhibition, Saccharomyces cerevisiae strains; conditions: DHT:anti-androgen 1:1,000
androgen receptor [3] = assay: Androgen receptor inhibition, Candida; assay type: binding
androgen receptor [4] = assay: Androgen receptor inhibition, Torulopsis; assay type: binding
[5] = system: collagen:elastin formation; assay: Collagen synthesized and elastic increase compared to control, by patient; assay type: cell-based, human; conditions: anti-androgen to DHT 1,000:1
estrogen receptor [6] = assay: Estrogen receptor inhibition in skin/tissue fibroblast lines; assay type: cell-based, human; conditions: DHT:compound 1:1,000; for interference with / inhibition of estrogen receptors: more than 400 experiments
Procedure: Explants of both normal and keloid skin and tissue fibroblast lines were established.
Hormonal receptor analyses on these tissues were performed by the method of Griffith et al., Journal of Clinical Investigation, Vol. 57, page 1340 (1978).

## CCC(O)CCCCC1CCC2CC(=O)CC12 (stereo not drawn) [Compound IV]
Androgen receptor [1]
  % Androgen Receptor Inhibition: 90%
Estrogen receptor [2]; strain 1
  % Estrogen Receptor Inhibition: 0%
Estrogen receptor [2]; strain 2
  % Estrogen Receptor Inhibition: 0%
Estrogen receptor [2]; strain 3
  % Estrogen Receptor Inhibition: 0%
Estrogen receptor [2]; strain 4
  % Estrogen Receptor Inhibition: 0%
Estrogen receptor [2]; strain 5
  % Estrogen Receptor Inhibition: 0%
Estrogen receptor [2]; strain 6
  % Estrogen Receptor Inhibition: 0%
Estrogen receptor [2]; strain 7
  % Estrogen Receptor Inhibition: 0%
Androgen receptor [3]
  % Androgen Receptor Inhibition: 92%
Androgen receptor [4]
  % Androgen Receptor Inhibition: 77%

## CCC(CCCCC1CCC2CC(=O)CC12)OC (stereo not drawn) [Compound V, 2-(5-Methoxyhept-1-yl)bicyclo[3.3.0]octan-7-one]
[5]; patient 1
  Fold Elastic Increase Compared to Control: 1.4 Fold
[5]; patient 2
  Fold Elastic Increase Compared to Control: 4.7 Fold
[5]; patient 3
  Fold Elastic Increase Compared to Control: 2.0 Fold
[5]; patient 4
  Fold Elastic Increase Compared to Control: 4.0 Fold
[5]; patient 5
  Fold Elastic Increase Compared to Control: 6.0 Fold
[5]; patient 6
  Fold Elastic Increase Compared to Control: 2.0 Fold
[5]; patient 7
  Fold Elastic Increase Compared to Control: 3.0 Fold
[5]; patient 8
  Fold Elastic Increase Compared to Control: 3.0 Fold
[5]; patient 9
  Fold Elastic Increase Compared to Control: 4.0 Fold
[5]; patient 10
  Fold Elastic Increase Compared to Control: 6.0 Fold
[5]; patient 11
  Fold Elastic Increase Compared to Control: 3.0 Fold
Estrogen receptor [6]
  interference with / inhibition of estrogen receptors: without significant interference
Estrogen receptor [6]; listed as 2-(5-methoxyhept-1-yl)bicyclo[3.3.0]octan-7-one
  interference with / inhibition of estrogen receptors: None of the tests showed any measurable estrogen receptor inhibition; also recorded: without significant interference
Estrogen receptor [6]; forearm
  % Estrogen Receptor Inhibition: 0%
Estrogen receptor [6]; keloid
  % Estrogen Receptor Inhibition: 0%
Estrogen receptor [6]; keloid, listed as 2-(5-methoxyhept-1-yl)bicyclo[3.3.0]octan-7-one
  % Estrogen Receptor Inhibition: no measurable
Estrogen receptor [6]; scalp
  % Estrogen Receptor Inhibition: 0%
